Assay results from article PMC12880750, “Mechanistic insights and in vivo HIV suppression by the BRD4-targeting small molecule ZL0580” (PLOS Pathogens, 2026).

Assays:
[1] = tested on: BRD4-knockout (KO) J-Lat cells; test: RT-qPCR of differentially expressed genes, BRD4-KO J-Lat cells; type: cell-based, human; conditions: same treatments
Experimental: To validate the RNA-Seq results, RT-qPCR analysis was performed on a subset of differentially expressed genes (DEGs) (Fig 3E). Eight representative DEGs were selected based on statistical significance (adjusted p values) and their involvement in key pathways identified by GSEA, including lipid metabolism/cholesterol biosynthesis (HMGCS1, SQLE, DHCR7) and cytokine signaling (ITK and DUSP8). Relative gene expression levels were normalized to the housekeeping gene GAPDH. […] As an additional control, RT-qPCR was also performed on RNA isolated from BRD4-knockout (KO) J-Lat cells that received the same treatments. The generation and characterization of BRD4-KO J-Lat cells were described previously.
RT-qPCR was performed as previously reported.

[2] = tested on: CDK9 binding to HIV 5′-LTR in J-Lat cells (10.6); test: ChIP-qPCR of CDK9 binding to HIV 5'-LTR; type: cell-based, human; conditions: PMA 50ng/ml, 24 hours
Experimental: Twenty-four hours later, cells were subjected to ChIP-qPCR using an anti-CDK9 antibody, with isotype IgG as the ChIP control.
24 hours after treatments, ChIP-qPCR was performed using a CDK9-specific antibody to examine the recruitment of CDK9 to HIV 5’-LTR in J-Lat cells. ChIP using an isotype IgG was included for normalization. Data were shown as fold change in the precipitated HIV 5′ LTR by the CDK9 antibody relative to the control isotype IgG for each treatment condition.
ChIP was performed using a method reported previously [41]. About 15 × 10⁶ J-Lat cells were treated according to the conditions described in the Main Text. After treatment, cells were collected, washed once with PBS, and resuspended in 10 mL PBS. To cross-link protein–DNA complexes, cells were fixed with 37% formaldehyde, and the reaction was quenched by adding 10Xglycine and incubating for 5 min at room temperature. The cells were then pelleted by centrifugation, and the pellets were incubated in ice-cold lysis buffer for 30 min. […] After extensive washing with the appropriate ChIP buffers, immune complexes were eluted, reverse cross-linked, and treated with proteinase K. DNA was purified using phenol–chloroform extraction and subsequently analyzed by qPCR. […] ChIP-qPCR results were quantified using the fold-enrichment method as previously reported [41].

SMILES: Cc1sc2c(c1C)C(c1ccc(Cl)cc1)=N[C@@H](CC(=O)OC(C)(C)C)c1nnc(C)n1-2 [JQ1, reference compound]
- Contrasting regulatory effects on representative DEGs in the absence of BRD4 [1]: largely abolished

SMILES: CCCCCCCCCCCCCC(=O)O[C@@H]1[C@@H](C)[C@@]2(O)[C@@H](C=C(CO)C[C@]3(O)C(=O)C(C)=C[C@@H]23)[C@@H]2C(C)(C)[C@]12OC(C)=O [PMA, reference compound]
- Increase in CDK9 occupancy at the HIV promoter relative to NC [2]: ~ 19 fold
